Data as given in patent US7271005B2, “Modulation of bacterial membrane permeability” (priority 2002, dated 2007).

T1: PprA / PprB (Pseudomonas aeruginosa, UniProt Q9HWA7)
T1 construct: coding regions of the two open reading frames were amplified by PCR; His-tag; made in house; host or cells: E. coli strain M15 (pREP4) with pYW021 (pQE32-pprA) or pYW024 (pQE31-pprB)
T1 sequence (Q9HWA7 1-922): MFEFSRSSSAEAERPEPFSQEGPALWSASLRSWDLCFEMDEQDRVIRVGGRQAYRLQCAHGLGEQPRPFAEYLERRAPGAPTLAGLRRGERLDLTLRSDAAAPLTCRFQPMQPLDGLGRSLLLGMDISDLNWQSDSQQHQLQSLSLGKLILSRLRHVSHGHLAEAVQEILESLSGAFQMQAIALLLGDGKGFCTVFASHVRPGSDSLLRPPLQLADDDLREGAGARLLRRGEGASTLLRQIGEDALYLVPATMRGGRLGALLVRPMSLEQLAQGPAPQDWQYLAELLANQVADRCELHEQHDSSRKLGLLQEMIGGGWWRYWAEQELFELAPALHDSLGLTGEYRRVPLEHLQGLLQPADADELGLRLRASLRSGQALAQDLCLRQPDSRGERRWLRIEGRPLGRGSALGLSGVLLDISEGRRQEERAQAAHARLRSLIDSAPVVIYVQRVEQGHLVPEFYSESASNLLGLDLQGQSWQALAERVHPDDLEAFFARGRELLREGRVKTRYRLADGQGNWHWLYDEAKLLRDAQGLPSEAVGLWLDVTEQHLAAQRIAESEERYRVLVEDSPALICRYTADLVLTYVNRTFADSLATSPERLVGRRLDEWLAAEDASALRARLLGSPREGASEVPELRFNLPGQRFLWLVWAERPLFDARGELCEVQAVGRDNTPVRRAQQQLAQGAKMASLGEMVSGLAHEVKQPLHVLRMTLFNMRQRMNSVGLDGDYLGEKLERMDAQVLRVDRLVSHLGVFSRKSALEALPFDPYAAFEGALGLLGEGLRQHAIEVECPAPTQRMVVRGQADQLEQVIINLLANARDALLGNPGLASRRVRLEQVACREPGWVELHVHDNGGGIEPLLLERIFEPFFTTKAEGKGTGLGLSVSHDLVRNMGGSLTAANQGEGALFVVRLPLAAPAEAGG

B1: PprB: putative response regulator (PA4296) encoded by pprB, SEQ ID NO:4; His-tagged, purified from E. coli (protein, listed as Pseudomonas aeruginosa)
chain: MDKPASRHFSVLIIDDEPQVTSELRELLENSGYRCVTSTHRESAIASFQADPNIGLVICDLYLGQDNGIRLIESLKEVAGNGRFFESIILTGHDGRQEVIEAMRVGAADYYQKPVAPQELLHGLERLESRLHERVRSQLSLSHVNQRLEYLAESLNSIYRDIHKIKYEVHGNSQPSALRSEDSQPSAPPAPVAESQVSPSNPLFGKLSPRQQAVARLVSKGLTNYQIAYELGITENTVKLYVSQVLRLMHMHNRTQLALALSPAAMQQGSGAVVH
modifications: His tag
notes: His-tagged, purified from E. coli
B2: PprA: putative histidine kinase homolog (PA4293) encoded by pprA, SEQ ID NO:3; His-tagged, purified from E. coli (protein, listed as Pseudomonas aeruginosa)
chain: T1 sequence (Q9HWA7 1-922)
modifications: His tag
notes: as for B1

Key:
P. aeruginosa PAK1-3 = experiment: Antibiotic resistance of spontaneous neomycin-resistant mutant PAK1-3 compared with parent PAK; type: cell-based, Pseudomonas aeruginosa; settings: mutant PAK1-3 versus parent strain PAK
Description: A mutant P. aeruginosa (PAK) strain was used to identify the pprA membrane permeability-associated gene. Spontaneous neomycin resistant mutants of PAK were selected by culturing on L-agar medium containing 200 μg/ml neomycin.

[1] = system: clinical isolates of P. aeruginosa; experiment: Antibiotic sensitivity of CF and non-CF blood clinical isolates; type: cell-based, Pseudomonas aeruginosa; settings: 18 CF and 18 non-CF blood isolates; tetracycline 100 μg/ml
Description: Overexpression of the pprB gene in clinical isolates increases sensitivity to aminoglycosides. The pprB overexpresser construct was introduced into aminoglycoside-resistant clinical isolates of P. aeruginosa. 18 cystic fibrosis (CF) isolates and 18 non-CF blood isolates showing varying degrees of resistance to all aminoglycosides were randomly chosen for analysis. Since most of the strains were also resistant to carbenicillin, but sensitive to tetracycline (100 μg/ml), a tetracycline-resistant construct, pRRBTc, that expresses the pprB gene under lac promoter was used.

PAK1-3 cells = experiment: Complementation of PAK1-3: aminoglycoside sensitivity after introduction of plasmids; type: cell-based, Pseudomonas aeruginosa; settings: PprB overexpression compared with PprA overexpression
Source text: A gene associated with membrane permeability, termed pprA, was identified by complementation assay in PAK1-3 cells. On the assumption that the PAK1-3 strain is an impermeable mutant due to loss of a gene function, an effort was made to complement the mutant with wild type PAK chromosomal DNA clones. A clone bank of 3-5 kb PAK chromosomal DNA was constructed in pUCP18, a broad host range plasmid with a lac promoter and β-lactamase. Plasmids with DNA inserts were gel purified from the clone bank and electroporated into PAK1-3.
Transformants were first selected on L-agar containing carbenicillin (150 μg/ml) and then replica plated on L-agar containing carbenicillin (150 μg/ml) plus neomycin (200 μg/ml) to screen for isolates that are sensitive to aminoglycosides. […] Plasmids were purified from the three isolates and re-transformed into fresh PAK1-3 cells. […] This plasmid was designated pUCP18B.
The pprB gene was amplified from the PAK chromosome by PCR and cloned into pUCP19, inserted in the same or opposite direction relative to the lac promoter on the vector. The resulting constructs were designated pZLRR-α and pZLRR-β, respectively. See, Wang et al., 2003, Antimicrobial Agents and Chemotherapy 47:95-101. The PCR product was cloned into pCR2.1-TOPO, resulting pCR-RR in which the pprB gene is in the opposite direction relative to the lac promoter. […]

PprA / PprB [2] = molecular target: T1, PprA / PprB; experiment: In vitro phosphorylation assay with [γ-32P] ATP; type: biochemical; settings: 5 min at room temperature, SDS-PAGE, X-ray film
Source text: (§1) PprA or PprB were purified and expressed at high levels in E. coli. To produce PprA or PprB in E.coli, coding regions of the two open reading frames were amplified by PCR as described in Wang et al., supra. The PCR products were first cloned into pCR2.1-TOPO, designated pYW017 and pYW020, respectively. Subsequently, a 2.8 kb pprA fragment from pYW017 and an 862 bp pprB fragment from pYW020 were isolated and subcloned into the BamHI and HindIII sites of pQE32 and pQE31, resulting in pYW021 and pYW024, respectively.
(§2) To purify the His-tagged PprA or PprB, E.coli strain M15 harboring pREP4 and pYW021 or pYW024 were induced with 1 mM IPTG for six hours at 28° C. His-tagged PprA and PprB were affinity purified using Ni-agarose column from the soluble fraction of the cell extracts according to the protocol provided by Qiagen, Inc. The purified proteins were dialyzed against storage buffer (50 mM TrisCl pH8.0, 50 mM KCl, 5 mM MgCl2, 1 mM DTT and 50% glycerol) for overnight and stored at−20° C. until use.
(§3) PprA and PprB function in a two-component regulatory system. Like other two-component regulatory genes, both PprA and PprB contain conserved phosphorylation sites (histidine and aspartate, respectively). An in vitro phosphorylation assay was performed to investigate the relationship between the PprA and PprB. PprA and PprB were purified as described in Example 4. […]

PprA / PprB [3] = experiment: In vitro phosphorylation assay with [γ-32P] ATP; type: biochemical, Pseudomonas aeruginosa; settings: 5 min at room temperature, SDS-PAGE, X-ray film
Source text: as §1, §2, §3

Molecule	change of resistance/sensitivity of PAK1-3 to the antibiotic (P. aeruginosa PAK1-3)	further results
NC[C@H]1O[C@H](O[C@H]2[C@H](O)[C@@H](O[C@H]3O[C@H](CO)[C@@H](O)[C@H](N)[C@H]3O)[C@H](N)C[C@@H]2N)[C@H](N)C[C@@H]1O [tobamycin]	increased resistance	–
gentamicin	increased resistance	–
CC1(C)S[C@@H]2[C@H](NC(=O)C(C(=O)O)c3ccccc3)C(=O)N2[C@H]1C(=O)O (some centres unmarked) [carbenicillin]	not significantly changed	sensitivity of most of the clinical isolates [1]: resistant
O=C(O)c1cn(C2CC2)c2cc(N3CCNCC3)c(F)cc2c1=O [ciprofloxacin]	increased resistance	–
NCC[C@H](O)C(=O)N[C@@H]1C[C@H](N)[C@@H](O[C@H]2O[C@H](CN)[C@@H](O)[C@H](O)[C@H]2O)[C@H](O)[C@H]1O[C@H]1O[C@H](CO)[C@@H](O)[C@H](N)[C@H]1O [amikacine]	increased resistance	–
[H]/N=C(/N)N[C@H]1[C@H](O)[C@@H](O)[C@H](O[C@@H]2O[C@@H](C)[C@](O)(C=O)[C@H]2O[C@@H]2O[C@@H](CO)[C@H](O)[C@@H](O)[C@@H]2NC)[C@@H](N/C(N)=N\[H])[C@@H]1O [streptomycin]	increased resistance	–
CC[C@H]1OC(=O)[C@H](C)[C@@H](O[C@H]2C[C@@](C)(OC)[C@@H](O)[C@H](C)O2)[C@H](C)[C@@H](O[C@@H]2O[C@H](C)C[C@H](N(C)C)[C@H]2O)[C@](C)(O)C[C@@H](C)C(=O)[C@H](C)[C@@H](O)[C@]1(C)O [erythromycin]	increased resistance	–
B1	–	effect of overexpression on the MIC change of PAK1-3 (PAK1-3 cells): much more dramatic; phosphorylation of PprB when PprA was mixed with PprB (PprA / PprB [2]): highly phosphorylated
B2	–	phosphorylation of the purified protein alone (PprA / PprB [3]): phosphorylated
